Results as given in patent US9682991B2, “Tricyclic compounds for use as kinase inhibitors” (FUNDACIÓN CENTRO NACIONAL DE INVESTIGACIONES ONCOLOGICAS …, priority 2009, dated 2017).
Like-named read-outs stand apart in the source and are kept apart here.

Tests used:
[1] = system: Bad S112 phosphorylation in H1299 cells overexpressing Pim1 (H1299Pim1); assay: Bad S112 phosphorylation inhibition assay (In Cell ELISA); format: cell-based; settings: Homo sapiens, NCI-H1299, semi-quantitative, read-out: EC50 BadP ELISA H1299 Pim1
Description: Efficacy of compounds of the invention on the inhibition of Bad phosphorylation was measured by an In Cell ELISA. EC50 values were established for the tested compounds.
Cells: H1299 cells overexpressing Pim1 (H1299Pim1)
Cells were seeded in 15000 cells per 200 μl per well into 96-well plates and incubated for 16 h at 37° C., 5% CO2. On day two, nine serial 1:2 compound dilutions were made in DMSO in a 96-well plate. The compounds were added to duplicate wells in 96-well cell plates using a FX BECKMAN robot (Beckman Coulter) and incubated at 37° C. with CO2 atmosphere. After 4 hours, relative levels of Bad S112 phosphorylation were measured in Cell ELISA using SuperSignal ELISA Femto substrate (Pierce) and read on VICTOR (Perkin Elmer). EC50 values were calculated using ActivityBase from IDBS.

PIM-2 = PIM-2 (Homo sapiens (Human), UniProt Q9P1W9); assay: PIM-2 biochemical assay (ADP Hunter); settings: semi-quantitative; read-out: PIM2 IC50
Chain of PIM-2 (Q9P1W9 whole entry): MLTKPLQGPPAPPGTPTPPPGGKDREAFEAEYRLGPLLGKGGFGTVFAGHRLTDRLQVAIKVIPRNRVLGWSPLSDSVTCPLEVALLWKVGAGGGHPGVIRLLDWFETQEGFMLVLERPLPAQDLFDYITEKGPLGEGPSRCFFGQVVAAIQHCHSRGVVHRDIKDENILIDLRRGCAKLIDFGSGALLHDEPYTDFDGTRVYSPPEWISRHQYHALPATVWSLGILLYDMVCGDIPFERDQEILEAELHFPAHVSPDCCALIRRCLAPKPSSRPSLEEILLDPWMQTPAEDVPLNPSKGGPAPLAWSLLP
Excerpt: The biochemical assay to measure PIM-2 activity relies on the ADP Hunter assay kit (DiscoveRx Corp., Cat. #90-0077), that determines the amount of ADP as direct product of the kinase enzyme activity.

PIM-1 = PIM-1 (Homo sapiens (Human), UniProt P11309); assay: PIM-1 biochemical assay (ADP Hunter)
Chain of PIM-1 (P11309 whole entry): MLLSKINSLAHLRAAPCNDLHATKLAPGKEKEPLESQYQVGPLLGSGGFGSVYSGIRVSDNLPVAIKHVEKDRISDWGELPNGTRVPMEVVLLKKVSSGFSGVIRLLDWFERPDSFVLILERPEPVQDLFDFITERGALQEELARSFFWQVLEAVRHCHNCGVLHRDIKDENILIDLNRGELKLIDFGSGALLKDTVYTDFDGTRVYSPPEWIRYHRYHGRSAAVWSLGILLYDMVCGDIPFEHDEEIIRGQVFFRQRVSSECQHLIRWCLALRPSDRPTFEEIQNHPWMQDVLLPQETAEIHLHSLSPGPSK

PIM-3 = PIM-3 (Homo sapiens (Human), UniProt Q86V86); assay: PIM-3 biochemical assay (ADP Hunter); settings: semi-quantitative; read-out: PIM3 IC50
[2] = read-out: PIM1 IC50, semi-quantitative

SMILES	EC50 [1] [nM]	IC50 (PIM-2) [nM]	IC50 (PIM-1) [nM]	IC50 (PIM-3) [nM]	IC50 (PIM-1; [2]) [nM]	IC50 (PIM-1; read-out: PIM1 IC50) [nM]
CN1CCOc2c(N[C@H]3CC[C@H](O)CC3)nn3c(-c4cccc(OC(F)(F)F)c4)nnc3c21 [Example 20, 4-[9-Methyl-3-(3-trifluoromethoxy-phenyl)-8,9-dihydro-7H-6-oxa-1,2,3a,4,9-pentaaza-cyclopenta[a]naphthalen-5-ylamino]-cyclohexanol]	250 to 1000	> 1000	100 to 1000	100 to 1000	–	–
CC1CN(C)c2c(NCC3CCN(C)CC3)nn3c(-c4cccc(OC(F)(F)F)c4)nnc3c2O1 (stereo not drawn) [Example 40, [6,8-Dimethyl-3-(3-trifluoromethoxy-phenyl)-7,8-dihydro-6H-9-oxa-1,2,3a,4,6-pentaaza-cyclopenta[a]naphthalen-5-yl]-(1-methyl-piperidin-4-ylmethyl)-amine]	250 to 1000	100 to 1000	–	< 100	< 100	–
CN1CCC(CNc2nn3c(-c4cccc(OC(F)(F)F)c4)nnc3c3c2OCCN3C)CC1 [Example 17, (1-Methyl-piperidin-4-ylmethyl)-[9-methyl-3-(3-trifluoromethoxy-phenyl)-8,9-dihydro-7H-6-oxa-1,2,3a,4,9-pentaaza-cyclopenta[a]naphthalen-5-yl]-amine]	1000 to 10000	> 1000	–	100 to 1000	< 100	–
CN1CCOc2c1c(NCC13CCN(CC1)C3)nn1c(-c3cccc(OC(F)(F)F)c3)nnc21 [Example 54, (1-Aza-bicyclo[2.2.1]hept-4-ylmethyl)-[6-methyl-3-(3-trifluoromethoxy-phenyl)-7,8-dihydro-6H-9-oxa-1,2,3a,4,6-pentaaza-cyclopenta[a]naphthalen-5-yl]-amine]	250 to 1000	–	–	–	–	–
CN1CCOc2c1c(NCC1CC1)nn1c(-c3cccc(OC(F)(F)F)c3)nnc21 [Example 7, Cyclopropylmethyl-[6-methyl-3-(3-trifluoromethoxy-phenyl)-7,8-dihydro-6H-9-oxa-1,2,3a,4,6-pentaaza-cyclopenta[a]naphthalen-5-yl]-amine]	1000 to 10000	100 to 1000	< 100	< 100	–	25.2
CN1CCOc2c1c(NC1CC3(CCNCC3)C1)nn1c(-c3cccc(OC(F)(F)F)c3)nnc21 [Example 49, (7-Aza-spiro[3.5]non-2-yl)-[6-methyl-3-(3-trifluoromethoxy-phenyl)-7,8-dihydro-6H-9-oxa-1,2,3a,4,6-pentaaza-cyclopenta[a]naphthalen-5-yl]-amine]	250 to 1000	–	–	–	< 100	–
CN1CCOc2c1c(NCC1CC3(CCNCC3)C1)nn1c(-c3cccc(OC(F)(F)F)c3)nnc21 [Example 59]	250 to 1000	–	–	–	–	–
CN1CCOc2c1c(N1CC3(CCCNC3)C1)nn1c(-c3cccc(OC(F)(F)F)c3)nnc21 [Example 69, 5-(2,6-Diaza-spiro[3.5]non-2-yl)-6-methyl-3-(3-trifluoromethoxy-phenyl)-7,8-dihydro-6H-9-oxa-1,2,3a,4,6-pentaaza-cyclopenta[a]naphthalene]	< 250	100 to 1000	–	–	< 100	–
CN1CCOc2c(NC3CC4(CCNCC4)C3)nn3c(-c4cccc(OC(F)(F)F)c4)nnc3c21 [Example 65, (7-Aza-spiro[3.5]non-2-yl)-[9-methyl-3-(3-trifluoromethoxy-phenyl)-8,9-dihydro-7H-6-oxa-1,2,3a,4,9-pentaaza-cyclopenta[a]naphthalen-5-yl]-amine]	1000 to 10000	–	–	100 to 1000	< 100	–
CN1CCOc2c(N3CCC4(CC3)CC(N)C4)nn3c(-c4cccc(OC(F)(F)F)c4)nnc3c21 [Example 66, 7-[9-Methyl-3-(3-trifluoromethoxy-phenyl)-8,9-dihydro-7H-6-oxa-1,2,3a,4,9-pentaaza-cyclopenta[a]naphthalen-5-yl]-7-aza-spiro[3.5]non-2-ylamine]	1000 to 10000	> 1000	–	100 to 1000	< 100	–
CN1CCC(Nc2nn3c(-c4cccc(OC(F)(F)F)c4)nnc3c3c2N(C)CCO3)CC1 [Example 2, (1-Methyl-piperidin-4-yl)-[6-methyl-3-(3-trifluoromethoxy-phenyl)-7,8-dihydro-6H-9-oxa-1,2,3a,4,6-pentaaza-cyclopenta[a]naphthalen-5-yl]-amine]	250 to 1000	100 to 1000	–	100 to 1000	< 100	–
CN1CCC(CNc2nn3c(-c4ccc(F)cc4)nnc3c3c2N(C)CCO3)CC1 [Example 100, [3-(4-Fluoro-phenyl)-6-methyl-7,8-dihydro-6H-9-oxa-1,2,3a,4,6-pentaaza-cyclopenta[a]naphthalen-5-yl]-(1-methyl-piperidin-4-ylmethyl)-amine]	1000 to 10000	> 1000	100 to 1000	–	–	181
CN1CCOc2c1c(NCCN1CCOCC1)nn1c(-c3cccc(OC(F)(F)F)c3)nnc21 [Example 29, [6-Methyl-3-(3-trifluoromethoxy-phenyl)-5,6,7,8-tetrahydro-9-oxa-1,2,3a,4,6-pentaaza-cyclopenta[a]naphthalen-5-yl]-(2-morpholin-4-yl-ethyl)-amine]	< 250	100 to 1000	–	100 to 1000	–	–
FC(F)(F)Oc1cccc(-c2nnc3c4c(c(N5CCCCC5)nn23)OCCO4)c1 [Example 101, 5-Piperidin-1-yl-3-(3-trifluoromethoxy-phenyl)-7,8-dihydro-6,9-dioxa-1,2,3a,4-tetraaza-cyclopenta[a]naphthalene]	1000 to 10000	100 to 1000	–	100 to 1000	< 100	–
CNC1CCN(c2nn3c(-c4cccc(OC(F)(F)F)c4)nnc3c3c2N(C)CCO3)CC1 [Example 62, Methyl-{1-[6-methyl-3-(3-trifluoromethoxy-phenyl)-7,8-dihydro-6H-9-oxa-1,2,3a,4,6-pentaaza-cyclopenta[a]naphthalen-5-yl]-piperidin-4-yl}-amine]	< 250	100 to 1000	–	< 100	< 100	–
CN1CCOc2c(NCC3CCNCC3)nn3c(-c4cccc(OC(F)(F)F)c4)nnc3c21 [Example 58, [9-Methyl-3-(3-trifluoromethoxy-phenyl)-8,9-dihydro-7H-6-oxa-1,2,3a,4,9-pentaaza-cyclopenta[a]naphthalen-5-yl]-piperidin-4-ylmethyl-amine]	1000 to 10000	> 1000	–	100 to 1000	< 100	–
CCN1CCC(CNc2nn3c(-c4cccc(OC(F)(F)F)c4)nnc3c3c2N(C)CCO3)CC1 [Example 91, (1-Ethyl-piperidin-4-ylmethyl)-[6-methyl-3-(3-trifluoromethoxy-phenyl)-7,8-dihydro-6H-9-oxa-1,2,3a,4,6-pentaaza-cyclopenta[a]naphthalen-5-yl]-amine]	250 to 1000	–	–	–	–	–
CN1CCOc2c(N3CCC(CN)CC3)nn3c(-c4cccc(OC(F)(F)F)c4)nnc3c21 [Example 57, C-{1-[9-Methyl-3-(3-trifluoromethoxy-phenyl)-8,9-dihydro-7H-6-oxa-1,2,3a,4,9-pentaaza-cyclopenta[a]naphthalen-5-yl]-piperidin-4-yl}-methylamine]	1000 to 10000	> 1000	–	> 1000	< 100	–
CN1CCC(CNc2nn3c(-c4cccc(OC(F)(F)F)c4)nnc3c3c2CCCC3)CC1 [Example 37, (1-Methyl-piperidin-4-ylmethyl)-[3-(3-trifluoromethoxy-phenyl)-7,8,9,10-tetrahydro-[1,2,4]triazolo[3,4-a]phthalazin-6-yl]-amine]	1000 to 10000	–	–	–	–	–
CCN1CCOc2c1c(NCC1CCN(C)CC1)nn1c(-c3cccc(OC(F)(F)F)c3)nnc21 [Example 12, [6-Ethyl-3-(3-trifluoromethoxy-phenyl)-7,8-dihydro-6H-9-oxa-1,2,3a,4,6-pentaaza-cyclopenta[a]naphthalen-5-yl]-(1-methyl-piperidin-4-ylmethyl)-amine]	< 250	–	–	–	< 100	–
CN1CCOc2c1c(NCc1ccc(F)cc1)nn1c(-c3cccc(OC(F)(F)F)c3)nnc21 [Example 9, (4-Fluoro-benzyl)-[6-methyl-3-(3-trifluoromethoxy-phenyl)-7,8-dihydro-6H-9-oxa-1,2,3a,4,6-pentaaza-cyclopenta[a]naphthalen-5-yl]-amine]	1000 to 10000	> 1000	< 100	–	–	52.4
CN1CCOc2c1c(NCCCO)nn1c(-c3cccc(OC(F)(F)F)c3)nnc21 [Example 21, 3-[6-Methyl-3-(3-trifluoromethoxy-phenyl)-7,8-dihydro-6H-9-oxa-1,2,3a,4,6-pentaaza-cyclopenta[a]naphthalen-5-ylamino]-propan-1-ol]	–	100 to 1000	–	100 to 1000	< 100	–
CN1CCOc2c1c(N1CCCC3(CCCN3)CC1)nn1c(-c3cccc(OC(F)(F)F)c3)nnc21 (stereo not drawn) [Example 60, 5-(1,8-Diaza-spiro[4.6]undec-8-yl)-6-methyl-3-(3-trifluoromethoxy-phenyl)-7,8-dihydro-6H-9-oxa-1,2,3a,4,6-pentaaza-cyclopenta[a]naphthalene]	< 250	100 to 1000	–	–	< 100	–
